According to article PMC10672402 (Marine Drugs, 2023):

Experiments:
[1] = molecular target: T1, acetylcholinesterase (AChE) (Homo sapiens, UniProt P22303); test: acetylcholinesterase (AChE) inhibition, modified Ellman method; format: biochemical; conditions: concentration of 50 μg/mL; read-out: inhibition rate against AChE
T1 construct: purchased Solarbio, Beijing, China

pancreatic lipase (PL) = molecular target: T2, pancreatic lipase (PL) (Homo sapiens, UniProt P16233); test: pancreatic lipase (PL) inhibitory assay; format: biochemical
T2 sequence (P16233 17-465): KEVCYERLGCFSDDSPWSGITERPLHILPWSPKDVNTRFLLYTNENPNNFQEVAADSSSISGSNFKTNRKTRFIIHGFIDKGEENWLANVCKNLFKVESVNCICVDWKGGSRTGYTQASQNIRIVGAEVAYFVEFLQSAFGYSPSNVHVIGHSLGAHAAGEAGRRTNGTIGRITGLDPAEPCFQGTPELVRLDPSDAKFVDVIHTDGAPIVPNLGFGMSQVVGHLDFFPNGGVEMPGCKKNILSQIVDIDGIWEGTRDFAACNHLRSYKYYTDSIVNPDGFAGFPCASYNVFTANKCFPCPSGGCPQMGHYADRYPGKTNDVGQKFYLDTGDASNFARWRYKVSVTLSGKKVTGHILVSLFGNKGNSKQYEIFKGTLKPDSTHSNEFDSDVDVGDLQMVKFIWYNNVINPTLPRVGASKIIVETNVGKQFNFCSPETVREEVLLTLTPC

T1 sequence (P22303 32-614, species assumed): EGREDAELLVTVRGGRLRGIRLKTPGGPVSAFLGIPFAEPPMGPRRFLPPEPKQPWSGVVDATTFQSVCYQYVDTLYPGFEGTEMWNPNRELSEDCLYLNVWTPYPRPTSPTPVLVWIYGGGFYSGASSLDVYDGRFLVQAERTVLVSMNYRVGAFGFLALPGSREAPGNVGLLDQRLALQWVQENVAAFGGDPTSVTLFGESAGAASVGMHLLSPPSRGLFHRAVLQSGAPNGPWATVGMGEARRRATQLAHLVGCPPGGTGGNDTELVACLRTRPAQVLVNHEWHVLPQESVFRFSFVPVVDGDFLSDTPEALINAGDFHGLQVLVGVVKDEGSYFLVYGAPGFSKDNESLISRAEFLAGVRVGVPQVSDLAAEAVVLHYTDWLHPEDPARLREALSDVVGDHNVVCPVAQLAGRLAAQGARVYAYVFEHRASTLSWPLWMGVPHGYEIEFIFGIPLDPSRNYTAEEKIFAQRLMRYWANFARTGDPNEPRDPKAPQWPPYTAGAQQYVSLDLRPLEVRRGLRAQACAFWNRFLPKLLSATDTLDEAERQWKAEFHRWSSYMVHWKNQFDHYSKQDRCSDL

CCC(C)C1(O)OC(C)C2(OC)C(=O)C(C)=C(OC)C12 (centres unmarked) [Compound 1, asperpentenone B]
inhibition at 50 µg/mL [1]: 20 to 26%

C/C=C/C=C/[C@@H]1Cc2c(CC(=O)O)c(O)cc(O)c2O1 [Compound 3, asperpentenone D]
IC50 (pancreatic lipase (PL)): 127 µM

CCC(C)C(=O)Cc1oc(=O)c(C)c(O)c1C (centres unmarked) [Compound 10, paecilpyrone A]
inhibition at 50 µg/mL [1]: 20 to 26%

COC(=O)Cc1cccc(O)c1 [Compound 13, methyl-hydroxyphenylaceta]
inhibition at 50 µg/mL [1]: 20 to 26%

COc1cc(/C=C/C(=O)O)ccc1O [Compound 14, trans-ferulic acid]
inhibition at 50 µg/mL [1]: 20 to 26%
